Data reported in ChEMBL document CHEMBL1811903, “Protective role of 14-deoxy-11,12-didehydroandrographolide, a noncytotoxic analogue of andrographolide, in allergic airway inflammation” (J Nat Prod, 2011).
Calls of active or inactive are those of the source.

What was measured:
[1] = test system: RBL-2H3; assay: Cytotoxicity against rat RBL2H3 cells assessed as reduction in cell viability at 3 to 120 uM by MTS assay; format: cell-based; conditions: rbl-2h3, 120 µM, TDE = time-dependent effect
[2] = test system: A549; assay: Cytotoxicity against human A549 cells assessed as reduction in cell viability after 24 hrs by MTS assay; format: cell-based; conditions: a549, 24 h
[3] = Cytotoxicity against human BEAS2B cells assessed as reduction in cell viability after 24 hrs by MTS assay; format: cell-based; conditions: beas-2b
[4] = test system: RBL-2H3; assay: Cytotoxicity against rat RBL2H3 cells assessed as reduction in cell viability after 24 hrs by MTS assay; format: cell-based; conditions: rbl-2h3, 24 h
[5] = test system: A549; assay: Cytotoxicity against human A549 cells assessed as reduction in cell viability at 3 to 120 uM by MTS assay; format: cell-based; conditions: a549, 120 µM, TDE = time-dependent effect
[6] = test system: RBL-2H3; assay: Cytotoxicity against rat RBL2H3 cells assessed as reduction in cell viability after 48 hrs by MTS assay; format: cell-based; conditions: rbl-2h3, 48 h
[7] = Cytotoxicity against human BEAS2B cells assessed as reduction in cell viability at 3 to 120 uM by MTS assay; format: cell-based; conditions: beas-2b, TDE = time-dependent effect
[8] = Cytotoxicity against human BEAS2B cells assessed as reduction in cell viability after 48 hrs by MTS assay; format: cell-based; conditions: beas-2b
[9] = test system: A549; assay: Cytotoxicity against human A549 cells assessed as reduction in cell viability after 48 hrs by MTS assay; format: cell-based; conditions: a549, 48 h
[10] = test system: Mus musculus; assay: Antiinflammatory activity in ovalbumin-sensitized BALB/c mouse asthma model assessed as reduction in mucus production in lung at 1 mg/kg, ip administered 2 hrs before and 10 hrs after ovalbumin challenge measured after 24 hrs using PAS staining by histologic analysis; format: functional, organism-based; design: dose 1 mg/kg
[11] = test system: Mus musculus; assay: Toxicity in BALB/c mouse assessed as reduction in hemoglobin concentration at 1 mg/kg, ip; format: organism-based; design: dose 1 mg/kg, route intraperitoneal; conditions: in vivo
[12] = test system: Mus musculus; assay: Antiinflammatory activity in ovalbumin-sensitized ip dosed BALB/c mouse asthma model assessed as reduction in IL-5 level in bronchoalveolar lavage fluid administered 2 hrs before and 10 hrs after ovalbumin challenge measured after 24 hrs by ELISA; format: functional, organism-based; conditions: Lung
[13] = test system: Mus musculus; assay: Antiinflammatory activity in ovalbumin-sensitized ip dosed BALB/c mouse asthma model assessed as reduction in eotaxin level in bronchoalveolar lavage fluid administered 2 hrs before and 10 hrs after ovalbumin challenge measured after 24 hrs by ELISA; format: functional, organism-based; conditions: Lung
[14] = test system: Mus musculus; assay: Antiinflammatory activity in ovalbumin-sensitized BALB/c mouse asthma model lung assessed as reduction in NF-kappaB DNA binding activity at 1 mg/kg, ip administered 2 hrs before and 10 hrs after ovalbumin challenge measured after 24 hrs by immunoblotting; format: functional, organism-based; design: dose 1 mg/kg
[15] = test system: Mus musculus; assay: Antiinflammatory activity in BALB/c mouse asthma model assessed as reduction in ovalbumin-induced lymphocyte counts in bronchoalveolar lavage fluid at 1 mg/kg, ip administered 2 hrs before and 10 hrs after ovalbumin challenge measured after 24 hrs by cell counting; format: functional, organism-based; design: dose 1 mg/kg; conditions: Lung
[16] = test system: Mus musculus; assay: Toxicity in BALB/c mouse assessed as reduction in red blood cell count at 1 mg/kg, ip; format: organism-based; design: dose 1 mg/kg, route intraperitoneal; conditions: in vivo
[17] = test system: Mus musculus; assay: Antiinflammatory activity in ovalbumin-sensitized BALB/c mouse asthma model lung assessed as suppression in MCP-1 mRNA level at 1 mg/kg, ip administered 2 hrs before and 10 hrs after ovalbumin challenge measured after 24 hrs by RT-PCR analysis; format: functional, organism-based; design: dose 1 mg/kg
[18] = test system: Mus musculus; assay: Antiinflammatory activity in ovalbumin-sensitized BALB/c mouse asthma model lung assessed as suppression in VCAM-1 mRNA level at 1 mg/kg, ip administered 2 hrs before and 10 hrs after ovalbumin challenge measured after 24 hrs by RT-PCR analysis; format: functional, organism-based; design: dose 1 mg/kg
[19] = test system: Mus musculus; assay: Antiinflammatory activity in ovalbumin-sensitized ip dosed BALB/c mouse asthma model assessed as reduction in IL-13 level in bronchoalveolar lavage fluid administered 2 hrs before and 10 hrs after ovalbumin challenge measured after 24 hrs by ELISA; format: functional, organism-based; conditions: Lung
[20] = test system: RBL-2H3; assay: Inhibition of IgE-mediated rat RBL2H3 cell degranulation assessed as inhibition of beta-hexosaminidase release; format: functional, cell-based
[21] = test system: Mus musculus; assay: Antiinflammatory activity in ovalbumin-sensitized ip dosed BALB/c mouse asthma model assessed as reduction in IL-4 level in bronchoalveolar lavage fluid administered 2 hrs before and 10 hrs after ovalbumin challenge measured after 24 hrs by ELISA; format: functional, organism-based; conditions: Lung
[22] = test system: Mus musculus; assay: Antiinflammatory activity in ovalbumin-sensitized BALB/c mouse asthma model assessed as reduction in IgE level in serum at 0.1 to 1 mg/kg, ip administered 2 hrs before and 10 hrs after ovalbumin challenge measured after 24 hrs by ELISA; format: functional, organism-based
[23] = test system: Mus musculus; assay: Antiinflammatory activity in ovalbumin-sensitized BALB/c mouse asthma model assessed as reduction in total IgE level in serum at 0.1 to 1 mg/kg, ip administered 2 hrs before and 10 hrs after ovalbumin challenge measured after 24 hrs by ELISA; format: functional, organism-based
[24] = test system: Mus musculus; assay: Antiinflammatory activity in ovalbumin-sensitized BALB/c mouse asthma model assessed as reduction in goblet cell hyperplasia at 1 mg/kg, ip administered 2 hrs before and 10 hrs after ovalbumin challenge measured after 24 hrs using hematoxylin and eosin staining by histologic analysis; format: functional, organism-based; design: dose 1 mg/kg
[25] = target: Transcription factor p65 (Homo sapiens) (UniProt Q04206); assay: Inhibition of NF-kappaB p65 subunit in TNFalpha-stimulated human A549 cells assessed as reduction in DNA binding activity at 30 uM after 24 hrs by ELISA; format: cell-based
Transcription factor p65 (Homo sapiens), sequence (Q04206 whole entry): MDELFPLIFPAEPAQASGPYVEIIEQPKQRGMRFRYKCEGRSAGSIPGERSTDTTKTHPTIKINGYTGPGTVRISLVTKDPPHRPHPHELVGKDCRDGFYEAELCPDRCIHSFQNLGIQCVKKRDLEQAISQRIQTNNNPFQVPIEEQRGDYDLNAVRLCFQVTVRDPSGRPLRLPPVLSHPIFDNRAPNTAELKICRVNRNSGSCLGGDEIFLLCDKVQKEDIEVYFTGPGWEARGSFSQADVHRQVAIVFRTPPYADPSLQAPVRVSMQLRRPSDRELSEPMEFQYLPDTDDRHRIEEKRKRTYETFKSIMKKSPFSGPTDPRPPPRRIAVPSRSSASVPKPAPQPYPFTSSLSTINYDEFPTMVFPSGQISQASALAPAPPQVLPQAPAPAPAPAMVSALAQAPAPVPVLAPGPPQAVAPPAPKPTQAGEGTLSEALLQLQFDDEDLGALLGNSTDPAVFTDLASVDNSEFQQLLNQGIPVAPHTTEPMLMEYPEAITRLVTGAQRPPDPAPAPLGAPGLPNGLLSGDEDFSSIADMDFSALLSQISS

[26] = test system: Mus musculus; assay: Antiinflammatory activity in ip dosed BALB/c mouse asthma model assessed as reduction in ovalbumin-induced eosinophil counts in bronchoalveolar lavage fluid administered 2 hrs before and 10 hrs after ovalbumin challenge measured after 24 hrs by cell counting; format: functional, organism-based; conditions: Lung
[27] = test system: Mus musculus; assay: Antiinflammatory activity in ip dosed BALB/c mouse asthma model assessed as reduction in ovalbumin-induced total cell counts in bronchoalveolar lavage fluid administered 2 hrs before and 10 hrs after ovalbumin challenge measured after 24 hrs by cell counting; format: functional, organism-based; conditions: Lung
[28] = test system: Mus musculus; assay: Antiinflammatory activity in ovalbumin-sensitized BALB/c mouse asthma model lung assessed as suppression in Ym-1 mRNA level at 1 mg/kg, ip administered 2 hrs before and 10 hrs after ovalbumin challenge measured after 24 hrs by RT-PCR analysis; format: functional, organism-based; design: dose 1 mg/kg
[29] = test system: Mus musculus; assay: Antiinflammatory activity in ovalbumin-sensitized BALB/c mouse asthma model lung assessed as suppression in E-selectin mRNA level at 1 mg/kg, ip administered 2 hrs before and 10 hrs after ovalbumin challenge measured after 24 hrs by RT-PCR analysis; format: functional, organism-based; design: dose 1 mg/kg
[30] = test system: Mus musculus; assay: Antiinflammatory activity in ovalbumin-sensitized BALB/c mouse asthma model assessed as reduction in IgG2a level in serum at 0.1 to 1 mg/kg, ip administered 2 hrs before and 10 hrs after ovalbumin challenge measured after 24 hrs by ELISA; format: functional, organism-based
[31] = test system: Mus musculus; assay: Inhibition of ovalbumin-induced mast cell degranulation in BALB/c mouse asthma model at 1 mg/kg, ip administered 2 hrs before and 10 hrs after ovalbumin challenge measured after 24 hrs using toluidine blue staining by cell counting; format: functional, organism-based; design: dose 1 mg/kg
[32] = test system: Mus musculus; assay: Antiinflammatory activity in ovalbumin-sensitized BALB/c mouse asthma model assessed as reduction in methacholine-induced maximum total lung resistance at 1 mg/kg, ip administered 2 hrs before and 10 hrs after ovalbumin challenge; format: functional, organism-based; design: dose 1 mg/kg
[33] = test system: Mus musculus; assay: Toxicity in BALB/c mouse assessed as reduction in white blood cell count at 1 mg/kg, ip; format: organism-based; design: dose 1 mg/kg, route intraperitoneal; conditions: in vivo
[34] = test system: Mus musculus; assay: Antiinflammatory activity in ovalbumin-sensitized BALB/c mouse asthma model lung assessed as suppression in IL-33 mRNA level at 1 mg/kg, ip administered 2 hrs before and 10 hrs after ovalbumin challenge measured after 24 hrs by RT-PCR analysis; format: functional, organism-based; design: dose 1 mg/kg
[35] = target: Transcription factor p65 (Homo sapiens) (UniProt Q04206); assay: Inhibition of NF-kappaB p65 subunit translocation in TNFalpha-stimulated human A549 cells assessed as reduction in p65 level in nuclear extract at 30 uM after 24 hrs by immunoblotting; format: cell-based
[36] = Cytotoxicity against human BEAS2B cells assessed as reduction in cell viability at 3 to 120 uM after 24 to 48 hrs by MTS assay; format: cell-based; conditions: beas-2b
[37] = test system: Mus musculus; assay: Antiinflammatory activity in BALB/c mouse asthma model assessed as reduction in ovalbumin-induced macrophage counts in bronchoalveolar lavage fluid at 1 mg/kg, ip administered 2 hrs before and 10 hrs after ovalbumin challenge measured after 24 hrs by cell counting; format: functional, organism-based; design: dose 1 mg/kg; conditions: Lung
[38] = test system: RBL-2H3; assay: Cytotoxicity against rat RBL2H3 cells assessed as reduction in cell viability at 3 to 120 uM after 24 to 48 hrs by MTS assay; format: cell-based; conditions: rbl-2h3, 120 µM
[39] = test system: Mus musculus; assay: Toxicity in BALB/c mouse assessed as reduction in hematocrit at 1 mg/kg, ip; format: organism-based; design: dose 1 mg/kg, route intraperitoneal; conditions: in vivo
[40] = test system: Mus musculus; assay: Antiinflammatory activity in ovalbumin-sensitized BALB/c mouse asthma model lung assessed as suppression in Ym-2 mRNA level at 1 mg/kg, ip administered 2 hrs before and 10 hrs after ovalbumin challenge measured after 24 hrs by RT-PCR analysis; format: functional, organism-based; design: dose 1 mg/kg
[41] = test system: Mus musculus; assay: Antiinflammatory activity in ovalbumin-sensitized BALB/c mouse asthma model lung assessed as suppression in IL-17 mRNA level at 1 mg/kg, ip administered 2 hrs before and 10 hrs after ovalbumin challenge measured after 24 hrs by RT-PCR analysis; format: functional, organism-based; design: dose 1 mg/kg
[42] = test system: Mus musculus; assay: Antiinflammatory activity in ovalbumin-sensitized BALB/c mouse asthma model lung assessed as suppression in […] mRNA level at 1 mg/kg, ip administered 2 hrs before and 10 hrs after ovalbumin challenge measured after 24 hrs by RT-PCR analysis; format: functional, organism-based; design: dose 1 mg/kg
[43] = test system: Mus musculus; assay: Antiinflammatory activity in ovalbumin-sensitized BALB/c mouse asthma model lung assessed as suppression in Muc5ac mRNA level at 1 mg/kg, ip administered 2 hrs before and 10 hrs after ovalbumin challenge measured after 24 hrs by RT-PCR analysis; format: functional, organism-based; design: dose 1 mg/kg
[44] = test system: Mus musculus; assay: Antiinflammatory activity in ovalbumin-sensitized BALB/c mouse asthma model lung assessed as suppression in COX-2 mRNA level at 1 mg/kg, ip administered 2 hrs before and 10 hrs after ovalbumin challenge measured after 24 hrs by RT-PCR analysis; format: functional, organism-based; design: dose 1 mg/kg
[45] = test system: Mus musculus; assay: Antiinflammatory activity in ovalbumin-sensitized BALB/c mouse asthma model lung assessed as Inhibition of NF-kappaB p65 subunit nuclear translocation at 1 mg/kg, ip administered 2 hrs before and 10 hrs after ovalbumin challenge measured after 24 hrs by immunoblotting; format: functional, organism-based; design: dose 1 mg/kg
[46] = test system: Mus musculus; assay: Antiinflammatory activity in ovalbumin-sensitized BALB/c mouse asthma model assessed as reduction in IgG1 level in serum at 0.1 to 1 mg/kg, ip administered 2 hrs before and 10 hrs after ovalbumin challenge measured after 24 hrs by ELISA; format: functional, organism-based
[47] = test system: Mus musculus; assay: Antiinflammatory activity in ovalbumin-sensitized BALB/c mouse asthma model assessed as reduction in methacholine-induced distensibility of the lung at 1 mg/kg, ip administered 2 hrs before and 10 hrs after ovalbumin challenge; format: functional, organism-based; design: dose 1 mg/kg
[48] = test system: A549; assay: Cytotoxicity against human A549 cells assessed as reduction in cell viability at 3 to 120 uM after 24 to 48 hrs by MTS assay; format: cell-based; conditions: a549, 120 µM
[49] = test system: Mus musculus; assay: Antiinflammatory activity in ovalbumin-sensitized BALB/c mouse asthma model lung assessed as suppression in AMCase mRNA level at 1 mg/kg, ip administered 2 hrs before and 10 hrs after ovalbumin challenge measured after 24 hrs by RT-PCR analysis; format: functional, organism-based; design: dose 1 mg/kg

C=C1CC[C@@H]2[C@](C)(CO)[C@H](O)CC[C@@]2(C)[C@@H]1C/C=C1/C(=O)OC[C@H]1O [ANDROGRAPHOLIDE]
Dose-dependent effect: Activity [2] | Activity [3] | Activity [4] | Activity [6] | Activity [8] | Activity [9]
tde: Activity [1] | Activity [5] | Activity [7]

C=C1CC[C@@H]2[C@](C)(CO)[C@H](O)CC[C@@]2(C)[C@@H]1/C=C/C1=CCOC1=O
active: Activity [10] | Activity [12] Dose-dependent effect | Activity [13] Dose-dependent effect | Activity [14] | Activity [15] | Activity [17] | Activity [18] | Activity [19] Dose-dependent effect | Activity [21] Dose-dependent effect | Activity [22] | Activity [23] | Activity [24] | inhibition [25] | Activity [26] Dose-dependent effect | Activity [27] Dose-dependent effect | Activity [28] | Activity [29] | Activity [32] | Activity [34] | inhibition [35] | Activity [37] | Activity [40] | Activity [41] | Activity [42] | Activity [43] | Activity [44] | inhibition [45] | Activity [46] | Activity [47] | Activity [49]
Non-toxic: Activity [11] | Activity [16] | Activity [33] | Activity [36] | Activity [38] | Activity [39] | Activity [48]
inactive: inhibition [20] | Activity [30] | inhibition [31]
